Key:
[1] = In vivo pharmacokinetic investigation, plasma FITC-HPBCD after i.v. administration; design: species or system BALB/c male mice; settings: for CL: clearance = terminal ke × Vd1; for CL / ke (1–15 min) / t1/2 (1–15 min) / t1/2 (15–30 min) / t1/2 (30–60 min) / ke (15–30 min) / t1/2 (15–45 min) / t1/2 (45–60 min) / ke (15–45 min) / kc (1–15 min) / ke (30–60 min) / ke (45–60 min) / Vd: dose 250 µg; for ke (1–15 min): elimination rate constant; for ke (1–15 min) / ke (15–30 min) / ke (15–45 min) / kc (1–15 min) / ke (30–60 min) / ke (45–60 min): in min-1 (unit assumed); for t1/2 (1–15 min) / t1/2 (15–30 min) / t1/2 (30–60 min) / t1/2 (15–45 min) / t1/2 (45–60 min): in min; for Vd at 1 min of sampling: n = 6; for kc (1–15 min): rate constant of compartmentalization; for ke (30–60 min) / ke (45–60 min): terminal phase; for Vd: volume of distribution at 1 min
Method: Twelve BALB/c male mice (23–25 g) were involved in the study. 0.25 mg FITC-HPBCD, dissolved in 0.2 mL saline solution was injected into the lateral tail vein of each mouse. Blood samples were collected from the orbital sinus from six mice after 1, 15, 30 and 60 min and at 1, 15, 45 and 60 min from other six mice by the same sampling method. Blood samples were incubated for 1 h at 37 °C and centrifuged for 8 min at 1700 rpm to separate blood plasma. Aliquots of plasma from the samples were placed into black 96-well plates and their fluorescence intensities were measured by a FLUOstar Optima microplate reader (BMG LABTECH, Offenburg, Germany; 492 nm excitation and 520 nm emission wavelengths) and the plasma FITC-HPBCD concentrations were calculated.
The two compartment model was characterized by the following equations:(3) Ct=C^′×e^−kc×t+C^″×e^−ke×t (4) C0=C^′+C^″ where ke is the elimination rate constant of FITC-HPBCD determined from data of the terminal phase (ke(30-60 min) or ke(45-60 min)); t1/2 is the half-life of FITC-HPBCD calculated from the corresponding ke values; CL is the clearance of FITC-HPBCD; Vd is the volume of distribution of FITC-HPBCD determined from data related to the first minute (Vd1); Ct is the plasma concentration of FITC-HPBCD at “t”; C′ and C″ are the two components of the initial plasma concentration of FITC-HPBCD representing the amount of FITC-HPBCD that will be compartmentalized and eliminated, respectively.

[2] = Tissue accumulation in the supernatant of tissue homogenates ex vivo; design: species or system BALB/c male mice; settings: mice, i.v., after 60 min
Method: After the last blood sample collection, six animals were anaesthetized, and their blood vessels were perfused by warm saline solution. Finally, all mice were sacrificed, and the organs were removed from the six saline-perfused mice for further analysis. The collected organs (livers, lungs, kidneys, spleens, hearts and brains) were homogenized by adding 0.8 mL saline solution and the homogenates were centrifuged at 10,000 rpm for 20 min at 4 °C. From each sample, 0.1 mL of supernatant was placed into black 96-well plates and the fluorescence intensities were measured by microplate reader as described above. The lower limit of quantification of FITC-HPBCD in mouse plasma and organ homogenates was 0.25 µg/mL. The protein content of the tissue samples was determined by PierceTM BCA protein assay (Thermo Scientific, Rockford, IL, USA) according to the manufacturer’s instruction. FITC-HPBCD content of the samples was normalized to the tissue protein content. The animals were maintained in accordance with the Guidelines for the Care and Use of Laboratory Animals; experiments were approved by the Animal Care Committee of the University of Debrecen (permission no. 12/2014).

[3] = In vivo and ex vivo fluorescence imaging; design: species or system Male BALB/c mice; settings: mice, i.v.
Method: Male BALB/c mice (22–25 g) were bred and maintained in normal watering and feeding conditions in a Laboratory Animal Husbandry Facility, equipped with IVC (individually ventilated cages), controlled atmosphere-temperature, humidity and lighting (Vasile Goldis Western University, Arad, Romania). All experimental procedures were performed in compliance with the appropriate laws and institutional guidelines, and were approved by the Institutional Ethics Committee of Vasile Goldiș Western University of Arad (Arad, Romania). FITC-HPBCD (0.5 and 2.5 mg), dissolved in 0.1 mL saline solution was injected into the femoral vein of mice under general anaesthesia. Maintaining the surgical plane of anesthesia, mice were placed into an in vivo imaging system (In-vivo Xtreme, Carestream, Carestream Health Inc. USA). At 5, 15, 30, 45 and 60 min, fluorescence and X-ray images were recorded of the animals. After 30 or 60 min, the blood vessels of some animals were perfused by warm saline solution and their organs (livers, lungs, kidneys, spleens and brains) were removed for ex vivo imaging (excitation: 480 nm, emission: 535 nm).

HUVECs = assay: Intracellular FITC-HPBCD accumulation, fluorescence microscopy; assay type: cell-based, Human; settings: 50 µM, 30 min, 37 °C
Method: Human umbilical vein endothelial cells (HUVECs) were removed from umbilical veins by exposure to dispase (0.2% in Hank’s balanced salt solution) and cultured in gelatin-coated flasks in medium 199 containing 15% foetal bovine serum (FBS), antibiotics, L-glutamine, sodium pyruvate and endothelial cell growth supplement from bovine pituitary. For the fluorescent microscopic experiments, cells were seeded onto gelatin-coated round glass coverslips and maintained in medium until the treatments.
HUVECs, cultured on gelatin-coated glass coverslips were washed twice with Hank’s Balanced Salt Solution (HBSS) and treated with 50 µM FITC-HPBCD for 30 min at 37 °C. Cells were washed five times with ice-cold HBSS and fixed with 3% paraformaldehyde for 15 min. After fixation cells were washed with HBSS and the nuclei were stained with Hoechst 33,342 at the final concentration of 300 nM. Cells were washed again and mounted on microscope slides. […] Images were analyzed with ZEN 2012 v.1.1.0.0. software (Carl Zeiss Microscopy GmbH, Göttingen, Germany)

[4] = mice, i.v., Group F, sampling 1, 15, 30 and 60 min
[5] = mice, i.v., Group F, sampling 1, 15, 45 and 60 min
[6] = mice, i.v., Group NF, sampling 1, 15, 30 and 60 min
[7] = mice, i.v., Group NF, sampling 1, 15, 45 and 60 min

CL [1, 4]: 0.11 ± 0.15 mL/min
CL [1, 5]: 0.23 ± 0.08 mL/min
CL [1, 6]: 0.25 ± 0.15 mL/min
CL [1, 7]: 0.69 ± 0.38 mL/min
ke (1–15 min) [1, 4]: 0.092 ± 0.023
ke (1–15 min) [1, 5]: 0.095 ± 0.017
ke (1–15 min) [1, 6]: 0.115 ± 0.017
ke (1–15 min) [1, 7]: 0.107 ± 0.006
Vd at the first minute, average ([1]; mice, i.v., all animals n = 12): 5.7 ± 1.34 mL
t1/2 (1–15 min) ([1]; mice, i.v., Group F (followed two-compartment model), sampling 1, 15, 30 and 60 min): 7.82 ± 1.48
t1/2 (15–30 min) [1, 4]: 7.54 ± 0.52
t1/2 (30–60 min) [1, 4]: 122.3 ± 109.4
ke (15–30 min) [1, 4]: 0.092 ± 0.007
t1/2 (1–15 min) [1, 5]: 7.5 ± 1.13
t1/2 (15–45 min) [1, 5]: 13.55 ± 1.45
t1/2 (45–60 min) [1, 5]: 20.06 ± 3.89
ke (15–45 min) [1, 5]: 0.052 ± 0.007
t1/2 (1–15 min) ([1]; mice, i.v., Group NF (did not follow model), sampling 1, 15, 30 and 60 min): 6.13 ± 0.78
t1/2 (15–30 min) [1, 6]: 35.01 ± 10.15
t1/2 (30–60 min) [1, 6]: 16.61 ± 7.12
ke (15–30 min) [1, 6]: 0.022 ± 0.009
t1/2 (1–15 min) [1, 7]: 6.50 ± 0.31
t1/2 (15–45 min) [1, 7]: 13.36 ± 3.05
t1/2 (45–60 min) [1, 7]: 8.99 ± 4.54
ke (15–45 min) [1, 7]: 0.054 ± 0.013
Vd at 1 min of sampling ([1]; mice, i.v., group following the model): 5.55 ± 0.98 mL
Vd at 1 min of sampling ([1]; mice, i.v., group not following the model): 5.85 ± 1.72 mL
i.v. administered FITC-HPBCD eliminated from mice within 60 min ([1]; mouse, in vivo, iv): 96.58 ± 2.6%
kc (1–15 min) [1, 4]: 0.109 ± 0.026
kc (1–15 min) [1, 5]: 0.142 ± 0.033
ke (30–60 min) [1, 4]: 0.022 ± 0.029
ke (45–60 min) [1, 5]: 0.036 ± 0.008
ke (30–60 min) [1, 6]: 0.049 ± 0.020
ke (45–60 min) [1, 7]: 0.095 ± 0.044
Vd [1, 4]: 4.86 ± 0.21 mL
Vd [1, 5]: 6.25 ± 0.77 mL
Vd [1, 6]: 4.70 ± 1.27 mL
Vd [1, 7]: 7.01 ± 0.81 mL
fluorescence intensities in the supernatant of liver, lung, spleen, heart and brain homogenates [2]: not elevated
fluorescence intensity in the supernatant of kidney homogenates ([2]; normalized to tissue protein content): significant fluorescence
ex vivo fluorescence of lungs vs untreated control, separated imaging ([3]; 0.5 mg): higher ex vivo fluorescence
ex vivo fluorescence of kidneys ([3]; 0.5 mg, after 30 min): relative higher fluorescence
ex vivo fluorescence of kidneys ([3]; 2.5 mg/animal): especially high fluorescence
ex vivo fluorescence of lung ([3]; 2.5 mg/animal): elevated intensity
ex vivo fluorescence of organs vs control ([3]; 2.5 mg/animal, every organ (livers, lungs, kidneys, spleens, brains)): higher fluorescence intensities
in vivo fluorescence of the bladder ([3]; 30 and 45 min, urinated out at 60 min): accumulated in the bladder
ex vivo fluorescence of brains vs untreated ([3]; after 60 min): no difference
Substance: 6-deoxy-6-[(5/6)-fluoresceinylthioureido]-(2-hydroxypropyl)-β-cyclodextrin [FITC-HPBCD]
in vivo whole-body fluorescence distribution ([3]; 0.5 mg and 2.5 mg/animal, images at 5-60 min): distributed over the entire body of the animals
ex vivo fluorescence of brains vs untreated ([3]; both doses (0.5 and 2.5 mg), after 30 min, separated examination): higher fluorescence than the untreated ones
cellular localization by fluorescence microscopy (HUVECs): detected in the cytoplasm of HUVECs in small green vesicles

— paper PMC6843445, “Pharmacokinetic Properties of Fluorescently Labelled Hydroxypropyl-Beta-Cyclodextrin” (Biomolecules, 2019)
